Experimental data taken from US20260273007A1, “FEED ADDITIVE FOR IMPROVING PERFORMANCE OF FARMING ANIMALS” (Nutreco IP Assets B.V., priority 2023, published 2026).

Assays:
[1] = tested on: Alpha mouse liver 12 cells (AML12); format: cell-based
E. maxima = E. maxima infection of chickens: performance and fecal oocyst shedding (Example 8); format: in vivo; settings: E. maxima-infected chickens, 90 mg/kg feed of monensin
Text: Newly hatched chickens from Longnecker's hatchery, Elizabethtown, PA were housed in a Petersime brooder units and provided with feed and water ad libitum. All chickens were weighed and allocated to a cage. Per treatment, 60 chickens (5 birds/cage=12 replication) were used. Initial body weight was the same among treatments. For E. maxima infection freshly propagated E. maxima (ARS strain) were used to infect the birds. On d 14 after hatch, the birds were infected with 10,000 E. maxima oocysts through oral gavage. The experimental treatments were the following: [1]=Negative control (NC), non infected and untreated chicken; [2]=Positive control (PC)=[1]+infection; […] [4]=[2]+55 ppm of dried Glycyrrhiza glabra leaves; [5]=[2]+160 ppm of dried Glycyrrhiza glabra leaves. Monensin is the current standard used to control coccidiosis. […] Oocyst shedding: Faeces from each group was collected separately from 6-8 days post infection (dpi) for coccidiosis. To count coccidia oocysts, various dilutions were made initially to determine the optimum dilutions for enumeration of oocysts for each sample. Oocysts were counted microscopically using a McMaster counting chamber using a sodium chloride flotation method. The total number of oocysts shed per chicken were calculated using the formula: total oocysts/bird=(oocyst count×dilution factor×fecal sample volume/counting chamber volume)/number of birds per cage.

Compound | Cell viability (%) [1] [%] | ADFI d 15 to 19 (0 to 4 dpi) (E. maxima) [g] | ADFI d 15 to 21 (0 to 6 dpi) (E. maxima) [g] | ADFI d 15 to 23 (0 to 8 dpi) (E. maxima) [g] | ADG d 15 to 19 (0 to 4 dpi) (E. maxima) [g] | ADG d 15 to 21 (0 to 6 dpi) (E. maxima) [g] | ADG d 15 to 23 (0 to 8 dpi) (E. maxima) [g] | BW d 19 (4 dpi) (E. maxima) [g] | BW d 21 (6 dpi) (E. maxima) | BW d 23 (8 dpi) (E. maxima) | FCR d 15 to 19 (0 to 4 dpi) (E. maxima) | FCR d 15 to 21 (0 to 6 dpi) (E. maxima) | FCR d 15 to 23 (0 to 8 dpi) (E. maxima) | Lesion score (E. maxima) | Number of oocysts (fecal oocyst shedding, FIG. 2) (E. maxima; faeces 6-8 dpi)
Aflatoxin B1 | 51.8 |  |  |  |  |  |  |  |  |  |  |  |  |  | 
CC[C@@]1([C@@H]2O[C@@H]([C@H]3O[C@@](O)(CO)[C@H](C)C[C@@H]3C)C[C@@H]2C)CC[C@H]([C@]2(C)CC[C@]3(C[C@H](O)[C@@H](C)[C@@H]([C@@H](C)[C@@H](OC)[C@H](C)C(=O)O)O3)O2)O1 [MO, monensin] |  | 90 | 93.5 | 94.3 | 76.3 | 72.9 | 79.3 | 890 | 1,023 g | 1,220 g | 1.191 | 1.31 | 1.21 | reduced | reduced
